Columns and labels:
[1] = target: Histamine H3 receptor (Mus musculus, UniProt P58406); test: Antagonist activity against mouse histamine H3 receptor expressed in human HT1080 cells assessed as inhibition of (R)-alpha-methylhistamine-induced increase in intracellular calcium level by FLIPR assay; assay type: functional, cell-based, HT-1080
[2] = target: Histamine H3 receptor (Homo sapiens, UniProt Q9Y5N1); test: Antagonist activity against human histamine H3 receptor expressed in human HT1080 cells assessed as inhibition of (R)-alpha-methylhistamine-induced increase in intracellular calcium level by FLIPR assay; assay type: functional, cell-based, HT-1080
Sequence of Histamine H3 receptor (Homo sapiens, UniProt Q9Y5N1) (Q9Y5N1 whole entry): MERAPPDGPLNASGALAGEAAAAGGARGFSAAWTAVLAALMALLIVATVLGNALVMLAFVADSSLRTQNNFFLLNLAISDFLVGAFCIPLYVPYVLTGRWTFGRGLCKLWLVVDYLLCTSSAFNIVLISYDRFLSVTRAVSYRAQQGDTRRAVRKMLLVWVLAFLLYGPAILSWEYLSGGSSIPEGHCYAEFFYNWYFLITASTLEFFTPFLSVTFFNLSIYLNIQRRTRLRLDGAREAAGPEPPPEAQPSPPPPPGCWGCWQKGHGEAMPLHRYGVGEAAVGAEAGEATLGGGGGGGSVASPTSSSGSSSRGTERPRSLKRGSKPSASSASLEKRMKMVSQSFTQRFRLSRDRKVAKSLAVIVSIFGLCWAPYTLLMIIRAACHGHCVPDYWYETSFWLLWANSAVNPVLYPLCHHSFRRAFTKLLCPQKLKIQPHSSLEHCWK

[3] = Selectivity ratio of IC50 for mouse histamine H3 receptor to IC50 for human histamine H3 receptor
[4] = target: T1, hERG (KCNH2) (Homo sapiens, UniProt Q12809); test: Inhibition of human ERG at 50 uM
T1 sequence (Q12809 whole entry): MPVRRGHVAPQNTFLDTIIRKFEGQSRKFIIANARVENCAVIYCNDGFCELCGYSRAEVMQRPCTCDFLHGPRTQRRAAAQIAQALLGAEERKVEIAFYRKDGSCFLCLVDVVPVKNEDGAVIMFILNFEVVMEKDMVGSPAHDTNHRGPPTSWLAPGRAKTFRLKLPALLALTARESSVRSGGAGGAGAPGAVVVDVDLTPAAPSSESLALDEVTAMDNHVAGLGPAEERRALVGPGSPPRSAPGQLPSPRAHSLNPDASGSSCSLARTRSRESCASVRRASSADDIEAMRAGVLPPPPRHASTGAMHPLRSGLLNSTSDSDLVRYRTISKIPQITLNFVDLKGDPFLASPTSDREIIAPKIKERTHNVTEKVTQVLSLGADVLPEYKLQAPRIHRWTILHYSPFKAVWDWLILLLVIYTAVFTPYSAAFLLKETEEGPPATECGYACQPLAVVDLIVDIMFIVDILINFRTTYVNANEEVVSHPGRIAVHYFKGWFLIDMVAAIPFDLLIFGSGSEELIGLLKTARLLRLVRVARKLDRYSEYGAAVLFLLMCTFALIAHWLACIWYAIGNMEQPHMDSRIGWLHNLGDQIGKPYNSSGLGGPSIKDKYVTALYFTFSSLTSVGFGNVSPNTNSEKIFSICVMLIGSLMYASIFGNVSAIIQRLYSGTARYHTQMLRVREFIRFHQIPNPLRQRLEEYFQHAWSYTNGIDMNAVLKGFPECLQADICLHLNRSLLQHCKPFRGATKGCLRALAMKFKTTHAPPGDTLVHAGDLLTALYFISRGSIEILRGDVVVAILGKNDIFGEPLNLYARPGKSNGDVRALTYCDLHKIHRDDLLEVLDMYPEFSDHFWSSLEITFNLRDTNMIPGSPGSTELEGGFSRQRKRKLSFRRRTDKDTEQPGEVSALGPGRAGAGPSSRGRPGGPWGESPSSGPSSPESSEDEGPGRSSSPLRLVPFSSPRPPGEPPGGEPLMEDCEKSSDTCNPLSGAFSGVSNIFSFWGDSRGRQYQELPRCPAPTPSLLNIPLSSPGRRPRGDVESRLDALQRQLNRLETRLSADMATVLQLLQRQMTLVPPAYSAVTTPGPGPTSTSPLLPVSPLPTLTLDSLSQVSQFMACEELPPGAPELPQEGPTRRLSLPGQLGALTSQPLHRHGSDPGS

[5] = target: T1, hERG (KCNH2); test: Inhibition of human ERG at 10 uM

Sequence of Histamine H3 receptor (Mus musculus, UniProt P58406) (P58406 whole entry): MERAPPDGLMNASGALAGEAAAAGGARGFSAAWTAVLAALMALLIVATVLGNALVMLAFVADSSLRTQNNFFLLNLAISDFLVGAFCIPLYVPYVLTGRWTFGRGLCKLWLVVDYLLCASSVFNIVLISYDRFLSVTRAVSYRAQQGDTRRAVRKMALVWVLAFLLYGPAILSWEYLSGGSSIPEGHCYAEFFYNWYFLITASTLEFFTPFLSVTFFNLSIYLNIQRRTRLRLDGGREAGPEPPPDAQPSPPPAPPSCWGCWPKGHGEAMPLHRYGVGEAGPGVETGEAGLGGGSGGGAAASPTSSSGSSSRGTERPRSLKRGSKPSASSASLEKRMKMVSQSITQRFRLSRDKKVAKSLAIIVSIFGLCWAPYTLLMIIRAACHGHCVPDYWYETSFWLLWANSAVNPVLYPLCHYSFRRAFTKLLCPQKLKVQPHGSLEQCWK

Row | SMILES | IC50 [1] | IC50 [2] | Ratio IC50 [3] | inhibition at 50 µM [4] | inhibition at 10 µM [5]
1 | C[C@@H]1C[C@@](O)(CCc2cccc3ccccc23)[C@@H](C)CN1C | 85 nM | 2 nM |  |  | 16%
2 | CC(=O)OC1(C#Cc2cccc3ccccc23)CC(C)N(C)CC1C (racemic) | > 10000 nM | 5510 nM |  |  | 
3 | CC1CC(O)(/C=C/c2cccc3ccccc23)C(C)CN1C (racemic) | 570 nM | 20 nM |  |  | 20%
4 | CC1CC(O)(CCc2cccc3ccccc23)C(C)CN1C (racemic) | 480 nM | 17 nM |  |  | 15%
5 | CC1CC(O)(C#Cc2ccc3ccccc3c2)C(C)CN1C (racemic) | 810 nM | 84 nM |  |  | 
6 | CC1CC(O)(CCc2ccc3ccccc3c2)C(C)CN1C (racemic) | 122 nM | 2 nM |  |  | 0%
7 | CC1CN2CCCC2CC1(O)C#Cc1cccc2ccccc12 (racemic) | 280 nM | 5 nM |  |  | 23%
8 | CC1CN2CCCC2CC1(O)CCc1cccc2ccccc12 (racemic) | 345 nM | 14 nM |  |  | 
9 | NC(=NCc1ccc(Cl)cc1)SCCCc1cnc[nH]1 [CLOBENPROPIT] | 1 nM |  |  |  | 

More lines, main results first:

Row | IC50 [1] | IC50 [2] | Ratio IC50 [3] | SMILES | inhibition at 50 µM [4] | inhibition at 10 µM [5]
10 | 119 nM | 9 nM | 13 | C[C@@H]1C[C@@](O)(C#Cc2cccc3ccccc23)[C@@H](C)CN1C | 15% | 
11 | 1320 nM | 41 nM |  | C[C@@H]1CN(C)[C@@H](C)C[C@]1(O)C#Cc1cccc2ccccc12 |  | 
12 | 280 nM | 11 nM |  | CC1CC(O)(C#Cc2cccc3ccccc23)C(C)CN1C (racemic) |  | 
13 | 690 nM | 12 nM |  | CC1CC(O)(C#Cc2cccc3ncccc23)C(C)CN1C (racemic) |  | 3%
14 | 9730 nM | 709 nM |  | CC1CC(O)(C#Cc2cccc3cccnc23)C(C)CN1C (racemic) |  | 

Reference: ChEMBL document CHEMBL1268880, “Investigation of 4-piperidinols as novel H3 antagonists” (Bioorg Med Chem Lett, 2010)
